Reference: US20040162350A1, “Method of treating a non-cancerous disease of the male prostate” (priority 2003, published 2004)

What was measured:
[1] = test system: prostate enlargement; assay: Treatment of a person with prostate enlargement diagnosed as a non-cancerous condition; format: in vivo, human; details: 10 grams with each meal, total 40 grams daily
Text: A person with prostate enlargement diagnosed as a non-cancerous condition started a regimen of taking 10 grams of 2-amino-4-carbamoylbutanoic acid with each meal for a total of 40 grams daily.

[2] = test system: male volunteers; assay: Number of night awakenings with the need to urinate, recorded by male volunteers over six-week trial periods; format: in vivo, human; details: volunteers who woke three or more times a night in more than 28 nights of six-week baseline; multiple daily doses of 15-20 grams; result in at least two thirds of the nights of a subsequent six week trial period; seen in some volunteers
Text: A group of male volunteers recorded for six weeks the number of times a night that they were awakened with the need to urinate. Those who woke up three or more times a night in more than 28 nights durng the six week trial were then given multiple daily doses of 15-20 grams of 2-amino-4-carbamoylbutanoic acid and continued to record the number of times a night that they were awakened with the need to urinate.

Compound: NC(=O)CCC(N)C(=O)O (stereo not drawn) [2-amino-4-carbamoylbutanoic acid]
- relief felt ([1]; after a few weeks): felt relief
- prostate size ([1]; after two months of this regimen): shrunk to normal size
- number of times a night awakened with the need to urinate [2]: diminished from three or more times a night to twice, once, and even none at all
